In patent US20010051628A1, “METHODS TO MODULATE THE RESISTANCE OF CELLS TO APOPTOSIS MEDIATED BY MUTANT EPIDERMAL GROWTH FACTOR RECEPTORS” (priority 1998, published 2001):

Tests used:
glioma cell = conditions: cited from earlier work; for serum-driven cell growth: dose-dependent
[1] = test system: human glioblastoma cell lines; conditions: read-out: IC20 for monolayer growth inhibition; cited from earlier work
EGFR = conditions: monolayers at the IC20 doses; cited from earlier work
[2] = test system: human glioblastoma spheroids; conditions: cited from earlier work
U87MG.ΔEGFR cells [3] = assay: In situ TUNEL labeling of apoptotic DNA fragmentation; assay type: cell-based, human
Procedure: Cells were seeded on cover slips, treated with 5 μg/ml of CDDP for 2 days, and then TUNEL assays were performed. The percent of TUNEL-positive cells induced by CDDP treatment was assessed by counting more than 400 cells per coverslip. □, U87MG; ▪, U87MG.ΔEGFR;_, U87MG.DK;_, U87MG.wtEGFR.
For each sample, 20 μg of lysate was used. […] For control, the vehicle (DMSO) was used. Apoptosis rate determined by TUNEL assays of triplicate cover slips.
Apoptotic cells were detected by use of terminal deoxynucleotidyl transferase mediated nick end labeling (TUNEL) of apoptotic DNA strand breaks as described (16). Apoptotic index was calculated as a ratio of apoptotic cell number to total tumor cell number within the areas by counting more than 400 cells in each coverslip.

Bcl-XL = assay: Western blot of Bcl-XL expression; assay type: cell-based, human
Procedure: Total cell lysates were prepared at the various time points indicated. For each sample, 20 μg of lysate protein was used. Results were reproduced in three independent experiments. […] For each sample, 20 μg of lysate was used. […] For control, the vehicle (DMSO) was used. Apoptosis rate determined by TUNEL assays of triplicate cover slips. […] Cell lysates were prepared in RIPA buffer (16), equal protein per sample was separated on SDS-polyacrylamide gels, and transferred to nitrocellulose membranes (BioRad, Hercules, Calif.). Proteins on the membranes were probed with antibodies to Bcl-XL (Transduction, Lexington, Ky.), poly(ADP-ribose) polymerase (PARP) (C2-10; […]

caspase-3-like proteases = assay: Caspase activity assay in lysates of treated cells (Ac-DEVD-pNA substrate); assay type: cell-based, human; conditions: for caspase-3-like protease activity relative to basal activity: 48 hours after CDDP 5 μg/ml; for CDDP-induced caspase activation on co-treatment with tyrphostin: data not shown
Procedure: (§1) (A) Total cell lysates were prepared 2 days after treatment with 5 μg/ml CDDP. Samples were assayed for protease activity using the peptide substrate, Ac-DEVD-pNA. […] Cells were also treated with the plasma membrane-soluble caspase inhibitor Z-Asp-CH2DCB (200 μM) prior to and during CDDP treatment. □, U87MG; ▪, U87MG.ΔEGFR;_, U87MG.DK;_, U87MG.wtEGFR. […] (B) Proteolytic cleavage of PARP after CDDP treatment. For each sample, 20 μg total clarified protein lysate was loaded on to SDS-PAGE gels, electrophoresed, transferred to membranes and probed with anti-PARP monoclonal antibodies. FL, full-length; CF, cleaved fragment.
Cells were lysed in lysis buffer (ApoAlert, Clontech, Palo Alto, Calif.) for 15 min on ice, followed by centrifugation. Protease assays included 89 μl of reaction buffer (100 mM HEPES, pH 7.5, 20% v/v glycerol, 6 mM dithiothreitol, and 0.5 mM EDTA), I μl of 10 mM acetyl-Asp-Glu-Val-Asp-p-nitroanilide (Ac-DEVD-pNA) in DMSO (California Peptide Research, Inc., Napa, Calif.), and 10 μl of equal protein cell lysate. Samples were incubated at 37° C., and enzyme-catalyzed release of p-nitroanilide (pNA) was monitored at […] for 1 h in a microtiter plate reader (Molecular Devices Inc., Sunnyvale, Calif.). Aliquots of cell lysates diluted into the reaction buffer were first incubated with 10 μM caspase-3-like protease inhibitor, Ac-Asp-Glu-Val-Asp-aldehyde (Ac-DEVD-CHO) (Bachem, Torrance, Calif.), at 37° C. for 30 min. Values for picomoles of pNA released were calculated from those observed in OD405 values using a standard curve of pNA. One unit of protease activity was defined as the amount of enzyme required to release 1 pmol pNA/min at 37° C. For in vivo caspase inhibition studies, cells were cultured in the presence of peptide caspase inhibitor Z-Asp-CH2-DCB (Bachem).

PARP = assay: Western blot of proteolytic cleavage of PARP; assay type: cell-based, human
Procedure: as §1
Cell lysates were prepared in RIPA buffer (16), equal protein per sample was separated on SDS-polyacrylamide gels, and transferred to nitrocellulose membranes (BioRad, Hercules, Calif.). Proteins on the membranes were probed with antibodies to Bcl-XL (Transduction, Lexington, Ky.), poly(ADP-ribose) polymerase (PARP) (C2-10; Enzyme System Products, Dublin, Calif.), EGFR (C13) (15), or phosphotyrosine (4G10, Upstate Biotechnology, Lake Placid, N.Y.), and detected by chemiluminescence (Amersham).

U87MG.ΔEGFR cells [4] = assay: Cell survival (colony forming efficiency) assay; assay type: cell-based, human; conditions: drug 1 hr, then 10 to 12 days in fresh medium; colony count
Procedure: Western blot analysis of expression (lower) and auto-phosphorylation (upper) of wt EGFR (♦) and ΔEGFR (●) in U87MG, U87MG.ΔEGFR, U87MG.DK and U87MG.wtEGFR cells grown in media containing 10% serum. Low and similar levels of endogenous wt EGFR expression was also detected in U87MG, U87MG.ΔEGFR and U87MG.DK at longer exposures (data not shown). […] Cells were plated in triplicate 60-mm dishes and treated with media containing various concentrations of CDDP for 1 hr, followed by incubation with fresh media for 10 to 12 days. Numbers of colonies were counted after Giemsa staining. Results were reproduced in four independent experiments; bars, SID.
To determine the level of resistance of the cells to chemotherapeutic agents, colony forming efficiency assays were performed as described (20). Briefly, 400 or 700 cells were seeded in triplicate into dishes having a 60-mm diameter. On the next day cells were treated with various concentrations of CDDP for 1 hr or Taxol or vincristine for 2 hr, and then further incubated for 10 to 12 days in the fresh medium. The cells were fixed in methanol, stained with Giemsa solution (Sigma) and the number of colonies containing greater than 50 cells were counted. The survival fraction was calculated as the ratio of the colony-forming efficiency of drug-treated and untreated cells. […]

[5] = test system: malignant glioma cell lines; conditions: cited from earlier work
U-87 glioma xenografts = conditions: continuous intraperitoneal infusion; cited from earlier work
caspase-3-like protease = assay: Inhibition of caspase activity by pre-incubating cell lysates with inhibitor; assay type: biochemical, human; conditions: 10 μM, lysates pre-incubated at 37° C. for 30 min
Procedure: as §1
Cells were lysed in lysis buffer (ApoAlert, Clontech, Palo Alto, Calif.) for 15 min on ice, followed by centrifugation. Protease assays included 89 μl of reaction buffer (100 mM HEPES, pH 7.5, 20% v/v glycerol, 6 mM dithiothreitol, and 0.5 mM EDTA), I μl of 10 mM acetyl-Asp-Glu-Val-Asp-p-nitroanilide (Ac-DEVD-pNA) in DMSO (California Peptide Research, Inc., Napa, Calif.), and 10 μl of equal protein cell lysate. Samples were incubated at 37° C., and enzyme-catalyzed release of p-nitroanilide (pNA) was monitored at […] for 1 h in a microtiter plate reader (Molecular Devices Inc., Sunnyvale, Calif.). […] Values for picomoles of pNA released were calculated from those observed in OD405 values using a standard curve of pNA. […]

protein kinase C (PKC) = conditions: cited from earlier work
[6] = test system: human glioma cell lines A172, U563 or U251; conditions: cited from earlier work
glioma = conditions: pre-treatment with LTC4; cited from earlier work
tumors = conditions: EGF plus cisplatin versus cisplatin alone; cited from earlier work
[7] = test system: nitric oxide synthase (NOS); conditions: C6 glial cells; cited from earlier work

## COc1ccc(/C=C(\C#N)c2cccnc2)cc1OC [RG 13022]
Glioma cell; 50 μmol/L
  EGF- and PDGF-induced DNA synthesis: completely blocked
Glioma cell
  DNA synthesis induced by growth factors (EGF, PDGF; serum for the tyrphostins): dose-dependently inhibit
  cytotoxicity to the cells: no cytotoxic side effects
  selectivity in blocking either EGF or PDGF signaling: no selectivity
  serum-driven cell growth: inhibit

## N#CC(C#N)=Cc1cc(O)c(O)c(O)c1 [RG 50875]
Glioma cell
  DNA synthesis induced by growth factors (EGF, PDGF; serum for the tyrphostins): dose-dependently inhibit
  cytotoxicity to the cells: no cytotoxic side effects
  selectivity in blocking either EGF or PDGF signaling: no selectivity
  serum-driven cell growth: inhibit

## N#CC(C#N)=Cc1cc(O)c(O)c(O)c1 [tyrphostin A25]
[1]
  IC20: 3 µM
EGFR
  EGFR-associated tyrosine phosphorylation: no change
[2]; tyrphostin A25 at 3 μmol/L, third cell line
  invasion: reduced invasion

## [NH2][Pt]([NH2])([Cl])[Cl] [CDDP, cisplatin]
U87MG.ΔEGFR cells [3]; CDDP 5 μg/ml for 2 days, p<0.001
  proportion of TUNEL-positive cells, U87MG.ΔEGFR lower than U87MG, U87MG.DK or U87MG.wtEGFR: more than 5 fold lower
Bcl-XL; U87MG, U87MG.DK and U87MG.wtEGFR cells, continuous exposure for more than 24 hr
  Bcl-XL expression level during CDDP treatment: equally decreased
Bcl-XL; U87MG.ΔEGFR cells
  Bcl-XL expression level during CDDP treatment: remained unchanged
caspase-3-like proteases; U87MG parental cells
  caspase-3-like protease activity relative to basal activity: 5.3 fold
caspase-3-like proteases; U87MG.DK cells
  caspase-3-like protease activity relative to basal activity: 4.7 fold
caspase-3-like proteases; U87MG.wtEGFR cells
  caspase-3-like protease activity relative to basal activity: 6.4 fold
caspase-3-like proteases; U87MG.ΔEGFR cells
  caspase-3-like protease activity relative to basal activity: 2.0 fold
PARP; U87MG, U87MG.DK and U87MG.wtEGFR cells, 24 hr after CDDP
  cleavage of 116-kDa full-length PARP into 85-kDa fragment: observed
PARP; U87MG.ΔEGFR cells, 48 hr after CDDP
  cleavage of 116-kDa full-length PARP into 85-kDa fragment: trace levels
U87MG.ΔEGFR cells [4]
  IC50 value (survival) of U87MG.ΔEGFR cells relative to parental U87MG cells: 4.3 fold

## O=C(O)C[C@H](NC(=O)OCc1ccccc1)C(=O)COC(=O)c1c(Cl)cccc1Cl [Z-Asp-CH2-DCB]
U87MG.ΔEGFR cells [3]; cells treated with CDDP in the presence of the inhibitor, data not shown
  effect on CDDP-induced apoptosis: significant inhibition
caspase-3-like proteases; 200 μM prior to and during CDDP treatment, U87MG and sublines
  caspase-3-like protease activity of cells treated with CDDP in the presence of the inhibitor: did not exhibit an increase

## CN[C@@H]1C[C@H]2O[C@@](C)([C@@H]1OC)n1c3ccccc3c3c4c(c5c6ccccc6n2c5c31)C(=O)N[C@H]4O [UCN-01, seven-hydroxystaurosporine]
[5]
  combination with 1,3-bis(2-chloroethyl)-1-nitrosourea, inhibition of glioma cell proliferation: additive effects
  combination with cisplatin, inhibition of glioma cell proliferation: synergistic effects
U-87 glioma xenografts
  activity against U-87 glioma xenografts: significant activity

## Ac-Asp-Glu-Val-Asp-aldehyde (Ac-DEVD-aldehyde) [Ac-DEVD-CHO]
caspase-3-like protease
  effect on increased caspase activities of lysates from CDDP-treated cells: completely abolished

## O=c1c(-c2ccc(O)cc2)coc2cc(O)cc(O)c12 [genistein]
Glioma cell
  DNA synthesis induced by growth factors (EGF, PDGF; serum for the tyrphostins): inhibited
  cytotoxicity to the cells: cytotoxic
[1]
  IC20: 10 µM
Protein kinase C (PKC)
  PKC activity: dose dependently reduced
[6]
  proliferation rate: inhibited
EGFR
  EGFR-associated tyrosine phosphorylation: no change
[2]; genistein at 10 μmol/L
  infiltration: completely inhibited

## COc1cc2ncnc(Nc3cccc(Br)c3)c2cc1OC [AG1517]
caspase-3-like proteases; U87MG.ΔEGFR cells
  CDDP-induced caspase activation on co-treatment with tyrphostin: enhanced

## COc1cc2ncnc(Nc3cccc(Cl)c3)c2cc1OC [AG1478]
U87MG.ΔEGFR cells [3]; U87MG.ΔEGFR cells, CDDP 5 μg/ml for 2 days, concentrations per FIG. 6B
  apoptosis induction, tyrphostin in combination with CDDP: significant apoptosis in a dose-dependent and synergistic manner
Bcl-XL; U87MG.ΔEGFR cells, 15 μM
  Bcl-XL expression: marked reduction
caspase-3-like proteases; U87MG.ΔEGFR cells
  CDDP-induced caspase activation on co-treatment with tyrphostin: enhanced

## CO[C@@H]1[C@H](N(C)C(=O)c2ccccc2)C[C@H]2O[C@]1(C)n1c3ccccc3c3c4c(c5c6ccccc6n2c5c31)C(=O)NC4 [CGP 41 251]
Protein kinase C (PKC)
  PKC activity: reduced
[6]
  proliferation rate: reduced

## CCCCC/C=C\C\C=C/C=C/C=C/[C@@H](SC[C@H](NC(=O)CC[C@H](N)C(=O)O)C(=O)NCC(=O)O)[C@@H](O)CCCC(=O)O [LTC4]
glioma
  survival of CDDP-treated animals: increased survival to a statistically significant degree

## EGF: epidermal growth factor administered with cisplatin (NSDSECPLSHDGYCLHDGVCMYIEALDKYACNCVVGYIGERCQYRDLKWWELR; Epidermal growth factor; UniProt P01133 971-1023, looked up)
tumors
  cisplatin-induced tumor cell kill (final tumor volume): significantly enhance

## CO[C@H]1[C@@H](OC)C[C@H](C)[C@@H](OC)C2=CC(=O)C=C(NC(=O)/C(C)=C/C=C\[C@H](OC)[C@@H](OC(N)=O)/C(C)=C/[C@@H]1C)C2=O [herbimycin A]
[7]
  NOS induced by LPS and IFN-gamma: suppressed
